Test results from patent US20230372309A1, “ALPHA-2 ADRENERGIC RECEPTOR ANTAGONIST” (Kyoto University, priority 2020, published 2023).

How the values were obtained:
a2B adrenergic receptor [1] = target: T1, a2B adrenergic receptor (Homo sapiens, UniProt P18089); assay: TGFα shedding assay in transfected HEK293 cells, noradrenaline stimulation; type: cell-based; conditions: for IC50: 5 nM Noradrenaline stimulation, HEK293 cells, read-out: IC50, shedding assay, α2B
T1 construct: expressed in transfected cells; host or cells: HEK293
T1 sequence (P18089 1-450): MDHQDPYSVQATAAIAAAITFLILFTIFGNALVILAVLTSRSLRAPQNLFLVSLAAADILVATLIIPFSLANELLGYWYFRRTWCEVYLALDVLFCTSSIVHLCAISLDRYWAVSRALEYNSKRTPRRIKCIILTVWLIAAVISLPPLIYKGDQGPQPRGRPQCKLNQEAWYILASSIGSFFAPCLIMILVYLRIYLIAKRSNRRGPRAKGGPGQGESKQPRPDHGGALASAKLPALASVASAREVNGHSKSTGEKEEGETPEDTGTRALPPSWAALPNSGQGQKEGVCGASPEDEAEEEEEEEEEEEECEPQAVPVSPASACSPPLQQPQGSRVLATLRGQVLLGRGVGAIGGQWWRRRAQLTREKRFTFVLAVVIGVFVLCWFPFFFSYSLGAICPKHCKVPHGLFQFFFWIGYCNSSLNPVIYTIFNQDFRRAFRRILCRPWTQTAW
Description: (§1) The TGFα shedding assay is known as an assay by which a signal transduction pathway of a GPCR can be detected and measured (Patent Document 3). When the signal transduction pathway of a GPCR is activated, fusion proteins of membrane-bound alkaline phosphatase (AP) and TGFα are cleaved by TACE (TNFα converting enzyme), which is a membrane protease, and AP-TGFα is released from the cells. This released AP is measured.
(§2) The TGFα shedding assay was performed according to the method disclosed in WO2015/128894A1.
(§3) Specifically, human embryonic kidney HEK293 cells were transfected with a plasmid vector containing the cDNA of alkaline phosphatase (AP) fused TGFα, a plasmid vector containing the cDNA of a fusion protein (Gaq/i) of an N-terminal peptide fragment of Ga protein Gaq and a C-terminal peptide fragment of Ga protein Gai, and a plasmid vector containing the cDNA of a target GPCR, 24 hours later a compound was added and cultured for 30 minutes, a GPCR agonist (5 nM noradrenaline) was added, one hour later half of the culture supernatant was transferred to a new plate to prepare a supernatant plate, and the remaining plate was used as a cell plate. Ap-nitrophenyl phosphate solution was added to each plate and allowed to stand, and when 0 hours and 2 hours had passed, the absorbance at 405 nm was measured using a plate reader.
(§4) The measured value was converted to AP activity (%) according to the method described in WO2015/128894A1, and the obtained value was used as % Shedding.

a2A adrenergic receptor [2] = target: T2, a2A adrenergic receptor (Homo sapiens, UniProt P08913); assay: as above; type: cell-based; conditions: 5 nM Noradrenaline stimulation, read-out: IC50, shedding assay, α2A
T2 construct: expressed in transfected cells; host or cells: HEK293
T2 sequence (P08913 1-465): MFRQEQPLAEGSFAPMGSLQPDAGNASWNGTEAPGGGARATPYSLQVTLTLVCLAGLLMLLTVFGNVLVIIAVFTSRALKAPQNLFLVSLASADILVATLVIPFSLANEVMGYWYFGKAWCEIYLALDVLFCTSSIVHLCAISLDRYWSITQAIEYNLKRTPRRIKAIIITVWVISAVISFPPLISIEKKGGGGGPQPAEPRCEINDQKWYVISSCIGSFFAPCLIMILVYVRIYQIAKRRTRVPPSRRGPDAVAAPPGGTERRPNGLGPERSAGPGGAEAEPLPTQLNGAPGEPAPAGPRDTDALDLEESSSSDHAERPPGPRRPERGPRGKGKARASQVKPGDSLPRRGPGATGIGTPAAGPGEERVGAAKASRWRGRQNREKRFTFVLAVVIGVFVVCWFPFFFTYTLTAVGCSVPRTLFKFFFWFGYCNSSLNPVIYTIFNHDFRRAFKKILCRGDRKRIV
Description: as §1, §2, §3, §4

a2C adrenergic receptor = target: T3, a2C adrenergic receptor (Homo sapiens, UniProt P18825); assay: as above; type: cell-based; conditions: 5 nM Noradrenaline stimulation, read-out: IC50, shedding assay, α2C
T3 construct: expressed in transfected cells; host or cells: HEK293
T3 sequence (P18825 1-462): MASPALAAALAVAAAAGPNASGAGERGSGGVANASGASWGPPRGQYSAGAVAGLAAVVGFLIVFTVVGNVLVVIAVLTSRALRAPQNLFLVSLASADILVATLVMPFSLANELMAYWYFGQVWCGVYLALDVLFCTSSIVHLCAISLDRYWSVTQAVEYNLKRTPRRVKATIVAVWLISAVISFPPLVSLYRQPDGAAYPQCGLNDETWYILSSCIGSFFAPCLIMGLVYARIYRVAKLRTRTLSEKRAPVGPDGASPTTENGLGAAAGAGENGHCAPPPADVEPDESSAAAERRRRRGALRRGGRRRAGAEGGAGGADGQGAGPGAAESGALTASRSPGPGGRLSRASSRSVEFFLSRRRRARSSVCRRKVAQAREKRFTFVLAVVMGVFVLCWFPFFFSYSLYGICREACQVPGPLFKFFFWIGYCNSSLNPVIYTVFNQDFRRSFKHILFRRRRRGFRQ
Description: as §1, §2, §3, §4

a1B adrenergic receptor = target: T4, a1B adrenergic receptor (Homo sapiens, UniProt P35368); assay: Binding affinity to a1 adrenergic receptors, tritium-labeled prazosin tracer; conditions: tritium-labeled prazosin as tracer
T4 sequence (P35368 1-520): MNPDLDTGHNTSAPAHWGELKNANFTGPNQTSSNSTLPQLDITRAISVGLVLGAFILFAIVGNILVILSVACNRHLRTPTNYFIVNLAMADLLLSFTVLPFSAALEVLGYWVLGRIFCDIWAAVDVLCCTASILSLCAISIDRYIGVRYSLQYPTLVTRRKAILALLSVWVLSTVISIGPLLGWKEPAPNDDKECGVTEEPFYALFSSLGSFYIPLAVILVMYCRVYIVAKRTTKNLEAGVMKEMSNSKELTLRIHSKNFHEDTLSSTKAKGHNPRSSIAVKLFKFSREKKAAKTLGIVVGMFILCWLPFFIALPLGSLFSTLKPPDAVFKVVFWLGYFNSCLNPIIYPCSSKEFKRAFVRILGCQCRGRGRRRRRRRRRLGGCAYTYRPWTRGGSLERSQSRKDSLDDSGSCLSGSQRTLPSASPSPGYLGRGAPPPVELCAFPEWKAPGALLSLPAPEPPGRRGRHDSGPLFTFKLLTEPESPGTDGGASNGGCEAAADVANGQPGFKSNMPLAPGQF
Description: (§5) [Binding Affinity to a1 Adrenergic Receptors]
(§6) The compound 1 was assayed for its inhibitory activity against a1A adrenergic receptor and a1B adrenergic receptor using prazosin with a 7-methoxy group labeled with tritium as a tracer, and binding affinity was examined. Prazosin is an antagonist that specifically binds to a1 adrenergic receptors.

a1A adrenergic receptor = target: T5, a1A adrenergic receptor (Homo sapiens, UniProt P35348); assay: as above; conditions: tritium-labeled prazosin as tracer
T5 sequence (P35348 1-466): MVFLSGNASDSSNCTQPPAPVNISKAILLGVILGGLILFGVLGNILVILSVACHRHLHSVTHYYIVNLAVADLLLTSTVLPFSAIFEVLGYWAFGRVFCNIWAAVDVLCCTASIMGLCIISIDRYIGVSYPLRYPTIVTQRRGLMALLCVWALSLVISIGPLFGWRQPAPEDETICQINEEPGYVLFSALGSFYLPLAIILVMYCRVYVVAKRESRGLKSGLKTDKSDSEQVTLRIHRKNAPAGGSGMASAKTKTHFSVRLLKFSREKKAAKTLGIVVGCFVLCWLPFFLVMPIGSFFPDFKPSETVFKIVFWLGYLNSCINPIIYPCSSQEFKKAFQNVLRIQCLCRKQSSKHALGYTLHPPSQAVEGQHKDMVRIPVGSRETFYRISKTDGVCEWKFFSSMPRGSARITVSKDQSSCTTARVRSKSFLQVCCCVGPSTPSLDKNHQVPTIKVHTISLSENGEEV
Description: as §5, §6

a2B adrenergic receptor [3] = target: T1, a2B adrenergic receptor; assay: Binding affinity to a2 adrenergic receptors, tritium-labeled rauwolscine tracer; conditions: tritium-labeled rauwolscine as tracer
Description: (§7) [Binding Affinity to a2 Adrenergic Receptors]
(§8) The compound 1 was assayed for its inhibitory activity against a2A adrenergic receptor and a2B adrenergic receptor using rauwolscine with a methyl group labeled with tritium as a tracer, and binding affmity was examined. RauwoLscine is an antagonist that specifically binds to a2 adrenergic receptors.

a2A adrenergic receptor [4] = target: T2, a2A adrenergic receptor; assay: as above; conditions: tritium-labeled rauwolscine as tracer
Description: as §7, §8

| IC50 (a2B adrenergic receptor [1]) | binding affinity (inhibitory activity) to a2B adrenergic receptor compared with a2A and a2C adrenergic receptor (a2B adrenergic receptor [1]; shedding assay, Table 1, a2B versus a2A and a2C) | IC50 (a2A adrenergic receptor [2]) | IC50 (a2C adrenergic receptor) | binding affinity to the a1B adrenergic receptor (a1B adrenergic receptor) | binding affinity to the a1A adrenergic receptor (a1A adrenergic receptor) | binding affinity to a2B adrenergic receptor (a2B adrenergic receptor [3]) | binding affinity to a2B adrenergic receptor compared with a2A adrenergic receptor (a2B adrenergic receptor [3]; a2B versus a2A) | binding affinity to a2A adrenergic receptor (a2A adrenergic receptor [4]) | Structure (SMILES) |
| --- | --- | --- | --- | --- | --- | --- | --- | --- | --- |
| 1.2 µM | higher | > 30 µM | > 30 µM | did not exhibit binding affinity | did not exhibit binding affinity | exhibited selective binding affinity | higher | exhibited selective binding affinity | CCN1/C(=C/C(C)=O)Sc2ccc(F)cc21 [Compound 1, (1Z)-1-(3-ethyl-5-fluoro-2(3H)-benzothiazolylidene)-2-propanone] |
| > 30 µM |  | > 30 µM | > 30 µM |  |  |  |  |  | CCN1/C(=C/C(C)=O)Sc2cc(OC)ccc21 [Compound 3, (1Z)-1-(3-ethyl-6-methoxy-2(3H)-benzothiazoylidene)-2-propanone] |
| > 30 µM |  | > 30 µM | > 30 µM |  |  |  |  |  | CCN1/C(=C/C(C)=O)Sc2ccc(OC)cc21 [Compound 2] |
